{"source": "patent US4861768A", "about": "“2 β-substituted thiomethylpenicillin derivatives and their preparation and use” (Taiho Pharmaceutical Company, Limited, priority 1986, dated 1989)", "key": {"[1]": {"biological_target": "penicillinase (β-lactamase) from Bacillus SP", "experiment": "Test for β-lactamase inhibitory activity (microiodometry, penicillin G as substrate)", "format": "biochemical", "details": "read-out: 50% Inhibitory Concentration", "protocol": "The inhibitory activity of each compound against penicillinase (β-lactamase) from Bacillus SP was determined by microiodometry [Tanpakushitsu Kakusan Koso (Proteins, Nucleic Acids and Enzymes), vol. 23, No.5, pp 391-400 (1978)] using penicillin G as a substrate."}, "Acinetobacter 450 L": {"system": "Acinetobacter 450 L", "experiment": "MIC of piperacillin alone or with compound, Acinetobacter 450 L", "format": "cell-based", "details": "alone, Mueller Hinton Broth, 10^6 CFU/ml, 37° C., 20 hours", "protocol": "(§1) (1) The minimal inhibitory concentrations (MIC) of piperacillin in the presence of 10 μg/ml of compounds of the present invention against various bacteria were determined by the MIC assay method of Japan Society of Chemotherapy (Chemotherapy 29, No. 1, pp. 76-79, 1981). The MIC values of various compounds according to the present invention and of piperacillin, as used singly, were also determined. Each test strain was grown in Mueller Hinton Broth (Difco) and used for inoculation after dilution to a concentration of 10^6 CFU/ml. The assay media (Mueller Hinton Broth) containing piperacillin and the compound according to the present invention in a series of concentrations were inoculated with the test strain and incubated at 37° C. for 20 hours. The minimum concentration at which no more than 5 colonies were observed was determined. […] All the test strains used in the above assays were β-lactamase producers."}, "[2]": {"system": "Staphylococcus aureus 54 K", "experiment": "MIC of piperacillin alone or with compound, Staphylococcus aureus 54 K", "format": "cell-based", "details": "alone, Mueller Hinton Broth, 10^6 CFU/ml, 37° C., 20 hours", "protocol": "as §1"}, "[3]": {"system": "Klebsiella pneumoniae 101 L (TEM1)", "experiment": "MIC of piperacillin alone or with compound, Klebsiella pneumoniae 101 L (TEM1)", "format": "cell-based", "details": "20 h, read-out: MIC, Piperacillin alone", "protocol": "as §1"}, "[4]": {"system": "Pseudomonas aeruginosa PSE 3", "experiment": "MIC of piperacillin alone or with compound, Pseudomonas aeruginosa PSE 3", "format": "cell-based", "details": "PSE3, alone, Mueller Hinton Broth, 10^6 CFU/ml, 37° C., 20 hours", "protocol": "as §1"}, "[5]": {"system": "Serratia marcescens 200 L (TEM + C)", "experiment": "MIC of piperacillin alone or with compound, Serratia marcescens 200 L (TEM + C)", "format": "cell-based", "details": "alone, Mueller Hinton Broth, 10^6 CFU/ml, 37° C., 20 hours", "protocol": "as §1"}, "Echerichia coli SHV 1": {"system": "Echerichia coli SHV 1", "experiment": "MIC of piperacillin alone or with compound, Echerichia coli SHV 1", "format": "cell-based", "details": "20 h, read-out: MIC, Piperacillin alone", "protocol": "as §1"}, "Morganella morganii 119": {"system": "Morganella morganii 119", "experiment": "MIC of piperacillin alone or with compound, Morganella morganii 119", "format": "cell-based", "details": "alone, Mueller Hinton Broth, 10^6 CFU/ml, 37° C., 20 hours", "protocol": "as §1"}}}
{"smiles": "CC1(CSc2nnnn2-c2ccc(Cl)cc2)C(C(=O)O)N2C(=O)CC2S1(=O)=O", "note": "(stereo not drawn) [Compound 29, sodium 2β-(1-p-chlorophenyl-5-tetrazolylthio)methyl-2α-methylpenam-3α-carboxylate 1,1-dioxide]", "values": [{"measurement": "IC50", "setting": "[1]", "value": 480, "unit": "nM"}]}
{"smiles": "Cn1nnnc1SCC1(C)C(C(=O)O)N2C(=O)CC2S1(=O)=O", "note": "(stereo not drawn) [Compound 27, sodium 2α-methyl-2β-(1-methyl-5-tetrazolyl)thiomethylpenam-3α-carboxylate 1,1-dioxide]", "values": [{"measurement": "IC50", "setting": "[1]", "value": 870, "unit": "nM"}]}
{"smiles": "CC1(CSc2nnnn2-c2ccccc2)C(C(=O)O)N2C(=O)CC2S1(=O)=O", "note": "(stereo not drawn) [Compound 28, sodium 2α-methyl-2β-(1-phenyl-5-tetrazolyl)thiomethylpenam-3α-carboxylate 1,1-dioxide]", "values": [{"measurement": "IC50", "setting": "[1]", "value": 1000, "unit": "nM"}]}
{"smiles": "CC1(CSc2nnnn2CCO)C(C(=O)O)N2C(=O)CC2S1(=O)=O", "note": "(stereo not drawn) [Compound 31, sodium 2β-[1-(2'-hydroxyethyl)-5-tetrazolylthio]methyl-2α-methylpenam-3α-carboxylate 1,1-dioxide]", "values": [{"measurement": "IC50", "setting": "[1]", "value": 1820, "unit": "nM"}]}
{"smiles": "CCN1CCN(C(=O)N[C@@H](C(=O)N[C@@H]2C(=O)N3[C@@H]2SC(C)(C)[C@@H]3C(=O)O)c2ccccc2)C(=O)C1=O", "note": "[Piperacillin, piperacillin]", "values": [{"measurement": "MIC", "setting": "Acinetobacter 450 L", "value": 200, "unit": "µg/mL"}, {"measurement": "MIC", "setting": "[2]", "value": 6.25, "unit": "µg/mL"}, {"measurement": "MIC", "setting": "[3]", "value": 200, "unit": "µg/mL"}, {"measurement": "MIC", "setting": "[4]", "value": 50, "unit": "µg/mL"}, {"measurement": "MIC", "setting": "[5]", "value": 25, "unit": "µg/mL"}, {"measurement": "MIC", "setting": "Echerichia coli SHV 1", "value": 12.5, "unit": "µg/mL"}, {"measurement": "MIC", "setting": "Morganella morganii 119", "value": 25, "unit": "µg/mL"}]}
{"smiles": "CC1(CSC#N)C(C(=O)O)N2C(=O)CC2S1(=O)=O", "note": "(stereo not drawn) [Compound 26, sodium 2α-methyl-2β-thiocyanatomethylpenam-3α-carboxylate 1,1-dioxide]", "values": [{"measurement": "IC50", "setting": "[1]", "value": 9800, "unit": "nM"}]}
{"smiles": "COc1ccc(-n2nnnc2SCC2(C)C(C(=O)O)N3C(=O)CC3S2(=O)=O)cc1", "note": "(stereo not drawn) [Compound 30, sodium 2β-(1-p-methoxyphenyl-5-tetrazolylthio)methyl-2α-methylpenam-3α-carboxylate 1,1-dioxide]", "values": [{"measurement": "IC50", "setting": "[1]", "value": 750, "unit": "nM"}]}
